# Results from patent US20100021918A1, “METHOD FOR ASSAYING ACTION OF ANTITUMOR AGENT USING SPLICING DEFECTS AS INDEX” (Eisai R&D Management Co., Ltd., priority 2007, published 2010).
# Test system: peripheral blood mononuclear cells (PBMC)
# Assay: qPCR of precursor gene (pre-mRNA) expression in PBMC, Table 2
# Format: cell-based, human
# Conditions: three hours
# From the text: Since it is not easy to obtain a cancer tissue clinically, the measurement of the marker in hemocytes readily obtainable in peripheral blood would be more useful. It was then examined whether the marker gene obtained in cancer cells could change in peripheral blood mononuclear cells in a similar manner as observed in the cancer cells. Specifically peripheral blood was taken from three normal individuals (volunteers) and peripheral blood mononuclear cells were purified and treated with (8E,12E,14E)-7-((4-cycloheptylpiperazin-1-yl)carbonyl)oxy-3,6,16,21-tetrahydroxy-6,10,12,16,20-pentamethyl-18,19-epoxytricosa-8,12,14-trien-11-olide for three hours, followed by measurement of change in expression of the precursor gene (pre-mRNA) by qPCR.
# Ficoll-Paque PLUS solution (Amersham, 17-1440-02) was slowly added to the blood taken (with heparin added) from healthy individuals to form a layer underneath the blood (15 mL of Ficoll-Paque PLUS solution was added to 25 mL of blood). After the mixture was centrifuged at 1500 rpm for 30 min, the upper part containing platelets was removed and then a layer containing mononuclear cells was transferred to another tube. The cells were suspended in PBS and centrifuged at 1500 rpm for 5 min, followed by removal of the supernatant. After these steps were repeated twice, the PBMC was suspended in RPMI1640 (containing 10% FBS, penicillin, and streptomycin) and the number of the cells was then counted.
# PBMC was suspended in RPMI1640 medium (containing 10% FBS, penicillin, and streptomycin) to 5×10^6 cells/ml and 1 ml of the suspension was plated per well of a 24-well plate. Immediately, 111 μl of 10 times-concentrated (8E,12E,14E)-7-((4-cycloheptylpiperazin-1-yl)carbonyl)oxy-3,6,16,21-tetrahydroxy-6,10,12,16,20-pentamethyl-18,19-epoxytricosa-8,12,14-trien-11-olide was added to the well (six wells per each concentration tested). The cells were then cultured in an incubator with 5% carbon dioxide gas at 37° C. Three hours later, the supernatant was collected and centrifuged at 1500 rpm for five minutes. TRI reagent (SIGMA) (1 ml) was added to each well of the plate from which the supernatant was removed to harvest the cells, which was added to the centrifuged pellet to dissolve. RNA was purified in accordance with the protocol of TRI reagent. RNA was further purified using RNeasy (QIAGEN) and, in accordance with the protocol, DNaseI was added to the samples during the procedure. Absorbance at 260 nm was measured to quantify an amount of RNA.
# RNA was prepared to 30 ng/μl and cDNA was synthesized using TaqMan Reverse Transcription Reagents (Applied Biosystems). For the expression level of pre-mRNA of ID1, amplification was carried out by using TaqMan Universal PCR Master Mix (Applied Biosystems) with TaqMan Gene Expression Assays (Hs00704053_s1, Applied Biosystems) as a probe. For the expression level of pre-mRNA of DNAJB1, BZW1, NUP54, RIOK3, CDKN1B, STK17B, ADRM1, EIF4A1, FOXK2, GNB2L1, HSPA9B, HSPH1, KLHL18 and VIL2, reagents were prepared in accordance with each protocol by using POWER SYBR GREEN PCR MASTER MIX (Applied Biosystems) and primers with the sequence below (Invitrogen), and the expression level was measured with ABI7900 (Applied Biosystems). 18S rRNA was measured by both the TaqMan and SYBR methods. The expression level of 18S r RNA was measured with Hs99999901_s1 (Applied Biosystems) as primers for TaqMan and with 18S primers included in TaqMan Ribosomal RNA control reagents (4308329: Applied Biosystems) as primers for SYBR. Measured values were corrected using the expression level of 18S rRNA as an internal control. The expression level of each gene was calculated with the expression level in the cells treated without (8E,12E,14E)-7-((4-cycloheptylpiperazin-1-yl)carbonyl)oxy-3,6,16,21-tetrahydroxy-6,10,12,16,20-pentamethyl-18,19-epoxytricosa-8,12,14-trien-11-olide as 1.
smiles,measurement,setting,value
"CCC(O)C(C)C1OC1CC(C)(O)/C=C/C=C(\C)C1OC(=O)CC(O)CCC(C)(O)C(OC(=O)N2CCN(C3CCCCCC3)CC2)/C=C/C1C (stereo not drawn) [E7107, (8E,12E,14E)-7-((4-cycloheptylpiperazin-1-yl)carbonyl)oxy-3,6,16,21-tetrahydroxy-6,10,12,16,20-pentamethyl-18,19-epoxytricosa-8,12,14-trien-11-olide]",expression level of pre-mRNA of ADRM1 (untreated cells as 1),E7107 3 nM,1.8
same,expression level of pre-mRNA of BZW1 (untreated cells as 1),E7107 3 nM,1.72
same,expression level of pre-mRNA of CDKN1B (untreated cells as 1),E7107 3 nM,1.27
same,expression level of pre-mRNA of DNAJB1 (untreated cells as 1),E7107 3 nM,2.25
same,expression level of pre-mRNA of EIF4A1 (untreated cells as 1),E7107 3 nM,2.17
same,expression level of pre-mRNA of FOXK2 (untreated cells as 1),E7107 3 nM,2.1
same,expression level of pre-mRNA of GNB2L1 (untreated cells as 1),E7107 3 nM,2.47
same,expression level of pre-mRNA of HSPA9 (untreated cells as 1),E7107 3 nM,1.87
same,expression level of pre-mRNA of HSPH1 (untreated cells as 1),E7107 3 nM,1.26
same,expression level of pre-mRNA of ID1 (untreated cells as 1),E7107 3 nM,3.31
same,expression level of pre-mRNA of KLHL18 (untreated cells as 1),E7107 3 nM,2.36
same,expression level of pre-mRNA of NUP54 (untreated cells as 1),E7107 3 nM,2.31
same,expression level of pre-mRNA of RIOK3 (untreated cells as 1),E7107 3 nM,2.59
same,expression level of pre-mRNA of STK17B (untreated cells as 1),E7107 3 nM,1.94
same,expression level of pre-mRNA of VIL2 (untreated cells as 1),E7107 3 nM,1.27
same,expression level of pre-mRNA of ADRM1 (untreated cells as 1),E7107 10 nM,2.68
same,expression level of pre-mRNA of BZW1 (untreated cells as 1),E7107 10 nM,2.34
same,expression level of pre-mRNA of CDKN1B (untreated cells as 1),E7107 10 nM,2.35
same,expression level of pre-mRNA of DNAJB1 (untreated cells as 1),E7107 10 nM,4.46
same,expression level of pre-mRNA of EIF4A1 (untreated cells as 1),E7107 10 nM,3.64
same,expression level of pre-mRNA of FOXK2 (untreated cells as 1),E7107 10 nM,2.68
same,expression level of pre-mRNA of GNB2L1 (untreated cells as 1),E7107 10 nM,2.74
same,expression level of pre-mRNA of HSPA9 (untreated cells as 1),E7107 10 nM,3.45
same,expression level of pre-mRNA of HSPH1 (untreated cells as 1),E7107 10 nM,1.88
same,expression level of pre-mRNA of ID1 (untreated cells as 1),E7107 10 nM,6
same,expression level of pre-mRNA of KLHL18 (untreated cells as 1),E7107 10 nM,2.97
same,expression level of pre-mRNA of NUP54 (untreated cells as 1),E7107 10 nM,2.46
same,expression level of pre-mRNA of RIOK3 (untreated cells as 1),E7107 10 nM,3.57
same,expression level of pre-mRNA of STK17B (untreated cells as 1),E7107 10 nM,3.44
same,expression level of pre-mRNA of VIL2 (untreated cells as 1),E7107 10 nM,2.87
same,expression level of pre-mRNA of ADRM1 (untreated cells as 1),E7107 30 nM,2.59
same,expression level of pre-mRNA of BZW1 (untreated cells as 1),E7107 30 nM,3.26
same,expression level of pre-mRNA of CDKN1B (untreated cells as 1),E7107 30 nM,4.9
same,expression level of pre-mRNA of DNAJB1 (untreated cells as 1),E7107 30 nM,7.42
same,expression level of pre-mRNA of EIF4A1 (untreated cells as 1),E7107 30 nM,4.36
same,expression level of pre-mRNA of FOXK2 (untreated cells as 1),E7107 30 nM,2.31
same,expression level of pre-mRNA of GNB2L1 (untreated cells as 1),E7107 30 nM,2.23
same,expression level of pre-mRNA of HSPA9 (untreated cells as 1),E7107 30 nM,2.33
same,expression level of pre-mRNA of HSPH1 (untreated cells as 1),E7107 30 nM,2.68
same,expression level of pre-mRNA of ID1 (untreated cells as 1),E7107 30 nM,10.57
same,expression level of pre-mRNA of KLHL18 (untreated cells as 1),E7107 30 nM,2.6
same,expression level of pre-mRNA of NUP54 (untreated cells as 1),E7107 30 nM,1.93
same,expression level of pre-mRNA of RIOK3 (untreated cells as 1),E7107 30 nM,2.89
same,expression level of pre-mRNA of STK17B (untreated cells as 1),E7107 30 nM,3.99
same,expression level of pre-mRNA of VIL2 (untreated cells as 1),E7107 30 nM,4.89
